Measurements taken from patent publication US11111249B2, “Heteroaryl-pyrazole derivative, and preparation method therefor and medical application thereof” (Jiangsu Hengrui Medicine Co., Ltd., priority 2017, dated 2021).

What was measured:
[1] = molecular target: T1, hERG potassium channels (Homo sapiens, UniProt Q12809); test: Blocking effect on hERG potassium current, automatic patch-clamp, HEK293-hERG stable cell line; type: cell-based
T1 construct: expressed in transfected cells
Experimental: The blocking effect of the compound of the present application on hERG potassium current was tested using an automatic patch-clamp on a stable cell line transfected with hERG potassium channels.
The HEK293-hERG stable cell line was subcultured at a density of 1:4 in MEM/EBSS medium (10% FBS, 400 μg/mL G418, 1% MEM non-essential amino acid solution (100×), 1% sodium pyruvate solution) and cultured within 48-72 hours for automatic patch-clamp experiments. On the day of the experiment, the cells were digested with 0.25% trypsin, collected by centrifugation and resuspended with extracellular fluid (140 mM NaCl, 4 mM KCl, 1 mM MgCl2, 2 mM CaCl2, 5 mM MD glucose monohydrate, 10 mM Hepes, pH 7.4, 298 mOsmol) to give a cell suspension. […] The currents at each concentration of the compound and the blank control current were analyzed by HEAK Patchmaster, HEAK EPC 10 patch clamp amplifiers (Nanion) and Pathlinersoftware and data analysis software provided by Pathcontrol HTsoftware.
Blocking effect of the compound of the present application on hERG potassium current was determined by the above experimental method, and the IC50 values were as shown in Table 5.

[2] = molecular target: T2, human TLR7 (Homo sapiens, UniProt Q9NYK1); test: Activation of hTLR7 in HEK-Blue hTLR7 stably transfected cells; type: cell-based; conditions: OD 620 nm, 6-16 hours
T2 construct: host or cells: HEK-Blue hTLR7 (HEK293-derived) stably transfected cells
T2 sequence (Q9NYK1 27-1049): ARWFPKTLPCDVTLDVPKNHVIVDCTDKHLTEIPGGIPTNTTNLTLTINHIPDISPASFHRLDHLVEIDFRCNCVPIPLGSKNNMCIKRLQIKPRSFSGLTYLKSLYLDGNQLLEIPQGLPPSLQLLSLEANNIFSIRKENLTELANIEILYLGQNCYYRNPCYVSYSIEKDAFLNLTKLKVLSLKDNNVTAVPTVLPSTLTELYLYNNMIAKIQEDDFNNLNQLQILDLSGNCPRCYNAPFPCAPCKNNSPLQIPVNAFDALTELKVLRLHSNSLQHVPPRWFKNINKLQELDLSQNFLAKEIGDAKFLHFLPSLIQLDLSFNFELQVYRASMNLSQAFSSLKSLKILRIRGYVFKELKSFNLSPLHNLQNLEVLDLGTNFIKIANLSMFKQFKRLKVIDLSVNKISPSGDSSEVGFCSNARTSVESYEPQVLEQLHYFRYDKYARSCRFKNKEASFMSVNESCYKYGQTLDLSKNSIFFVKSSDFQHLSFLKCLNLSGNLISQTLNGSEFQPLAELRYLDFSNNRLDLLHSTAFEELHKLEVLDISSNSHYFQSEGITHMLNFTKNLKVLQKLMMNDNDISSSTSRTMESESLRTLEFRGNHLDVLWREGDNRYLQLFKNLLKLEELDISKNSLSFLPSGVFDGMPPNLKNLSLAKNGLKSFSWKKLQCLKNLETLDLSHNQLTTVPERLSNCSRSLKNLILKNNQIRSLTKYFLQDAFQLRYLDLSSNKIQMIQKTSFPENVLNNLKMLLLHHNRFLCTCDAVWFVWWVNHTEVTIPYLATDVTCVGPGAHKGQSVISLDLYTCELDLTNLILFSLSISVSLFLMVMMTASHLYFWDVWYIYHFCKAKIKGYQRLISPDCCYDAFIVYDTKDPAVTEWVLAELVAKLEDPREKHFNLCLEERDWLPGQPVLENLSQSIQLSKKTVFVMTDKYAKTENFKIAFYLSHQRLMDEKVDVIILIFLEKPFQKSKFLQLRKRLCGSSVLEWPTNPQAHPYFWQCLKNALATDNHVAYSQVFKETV
Experimental: The activation effect of the compound of the present application on the hTLR7 protein expressed in HEK-Blue™ hTLR7 stably transfected cells and hTLR8 protein expressed in HEK-Blue™ hTLR8 stably transfected cells were determined by the following experimental method:
The HEK-Blue assay medium was configured, HEK-Blue test dry powder was taken and 50 mL deendotoxin water were added to dissolve, then the resulting mixture was placed into the 37° C. incubator, and then filtered aseptically 10 minutes later. […]
The above-prepared compound was diluted 20-fold with a medium, and then 20 μL of the diluted compound were added to each well. HEK-Blue™ hTLR7 cells and HEK-Blue™ hTLR8 cells were taken separately, and the supernatant was removed first, then 2-5 mL pre-warmed PBS was added, placed in an incubator for 1-2 minutes, and the cells were gently pipetted, stained with trypan blue and counted. […]
The microplate reader reads at a wavelength of 620 nm. The corresponding OD value was obtained, and the EC50 value of the drug was calculated by Graphpad Prism. The activation effect of the compound of the present application and the control compound (prepared by the method of embodiment 21 of WO2016023511) on human TLR7 and TLR8 were determined by the above test, and the measured EC50 values were as shown in Table 1.

T1 sequence (Q12809 whole entry): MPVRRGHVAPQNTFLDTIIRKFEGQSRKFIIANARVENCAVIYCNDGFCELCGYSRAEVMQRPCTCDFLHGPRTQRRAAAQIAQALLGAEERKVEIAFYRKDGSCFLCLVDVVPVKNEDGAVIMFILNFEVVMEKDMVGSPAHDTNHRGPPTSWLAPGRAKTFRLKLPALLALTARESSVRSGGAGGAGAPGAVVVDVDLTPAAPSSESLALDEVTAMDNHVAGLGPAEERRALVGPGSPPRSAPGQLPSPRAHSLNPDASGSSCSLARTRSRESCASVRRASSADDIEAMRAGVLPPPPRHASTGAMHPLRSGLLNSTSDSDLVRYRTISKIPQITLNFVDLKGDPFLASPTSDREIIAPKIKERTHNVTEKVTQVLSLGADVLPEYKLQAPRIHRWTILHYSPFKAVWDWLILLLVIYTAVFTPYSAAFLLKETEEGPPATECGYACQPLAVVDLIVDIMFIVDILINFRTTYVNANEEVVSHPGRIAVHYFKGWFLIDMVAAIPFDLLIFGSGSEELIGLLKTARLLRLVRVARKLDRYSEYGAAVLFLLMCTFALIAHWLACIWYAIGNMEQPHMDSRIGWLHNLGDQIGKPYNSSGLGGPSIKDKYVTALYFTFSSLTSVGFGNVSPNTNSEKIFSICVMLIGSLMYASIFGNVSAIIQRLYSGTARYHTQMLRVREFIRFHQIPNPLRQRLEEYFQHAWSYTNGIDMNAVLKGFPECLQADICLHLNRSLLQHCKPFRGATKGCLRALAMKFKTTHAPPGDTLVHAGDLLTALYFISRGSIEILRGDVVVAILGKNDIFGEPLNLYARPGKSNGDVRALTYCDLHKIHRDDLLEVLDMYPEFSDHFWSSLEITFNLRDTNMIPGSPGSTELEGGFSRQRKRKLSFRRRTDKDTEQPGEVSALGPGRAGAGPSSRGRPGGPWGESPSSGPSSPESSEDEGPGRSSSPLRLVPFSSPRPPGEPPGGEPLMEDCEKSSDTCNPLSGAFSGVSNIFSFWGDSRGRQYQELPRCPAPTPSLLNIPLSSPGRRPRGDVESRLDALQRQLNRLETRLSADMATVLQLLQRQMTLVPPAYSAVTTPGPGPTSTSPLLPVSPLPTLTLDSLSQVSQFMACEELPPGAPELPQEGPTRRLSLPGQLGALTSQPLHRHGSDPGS

Compound	IC50 [1] [nM]	EC50 [2] [nM]
CCCCOc1nc(N)c2[nH]nc(Cc3ccc(CN4CCCC4)cc3)c2n1 [Embodiment 1, 5-Butoxy-3-(4-(pyrrolidin-1-ylmethyl)benzyl)-1H-pyrazolo[4,3-d]pyrimidin-7-amine]	> 30000	53
CCCCOc1nc(N)c2[nH]cc(Cc3ccc(CN4CCCC4)cc3)c2n1 [Embodiment 21 of WO2016023511]	3600	243
